Molecules are shown by their SMILES.

The target in this test is PAI-1 (Homo sapiens, UniProt P05121). Nature of the test: PAI chromogenic substrate assay (first S2251 assay, tPA/plasminogen system). The class given is biochemical. The procedure, abridged:
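Compound preincubated with PAI-1, then added to a tPA/plasminogen system; residual tPA activity generates plasmin, which cleaves chromogenic substrate S2251, releasing p-nitroaniline read at 405 nm.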

PAI-1, sequence (P05121 24-402): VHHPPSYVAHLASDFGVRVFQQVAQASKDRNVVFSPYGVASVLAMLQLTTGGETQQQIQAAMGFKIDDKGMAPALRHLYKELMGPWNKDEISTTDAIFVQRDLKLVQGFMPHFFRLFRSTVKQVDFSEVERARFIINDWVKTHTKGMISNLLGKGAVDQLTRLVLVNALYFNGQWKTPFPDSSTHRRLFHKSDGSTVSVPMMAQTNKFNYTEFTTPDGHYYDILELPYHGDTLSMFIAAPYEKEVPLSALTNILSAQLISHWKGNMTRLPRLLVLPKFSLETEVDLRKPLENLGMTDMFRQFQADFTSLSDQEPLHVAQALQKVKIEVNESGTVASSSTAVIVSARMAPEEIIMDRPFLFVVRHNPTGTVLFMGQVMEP

Turning to `CN(C)CCCOc1ccc(/C=c2\[nH]c(=O)/c(=C/c3ccccc3)[nH]c2=O)cc1` [Compound 75, (3Z,6Z)-6-Benzylidene-3-(4-(3-N,N-dimethylaminopropoxy)benzylidene)-2,5-piperazinedione], the Inhibition of PAI-1 in the first S2251 chromogenic substrate assay is, setting by setting: (Concentration 6.25 μm) 2%; (Concentration 12.5 μm) 6%; (Concentration 25 μm) 33%; (Concentration 50 μm) 52%; (Concentration 100 μm) 59%.

For the compound `CC(=O)SCc1ccc(/C=c2\[nH]c(=O)/c(=C/c3ccccc3)[nH]c2=O)cc1` [Compound 76, (3Z,6Z)-6-Benzylidene-3-(4-thioacetoxymethylbenzylidene)-2,5-piperazinedione], the Inhibition of PAI-1 in the first S2251 chromogenic substrate assay reads like this: (Concentration 6.25 μm) 2%; (Concentration 12.5 μm) 5%; (Concentration 25 μm) 50%; (Concentration 50 μm) 75%; (Concentration 100 μm) 66%.

As to `CC(=O)Nc1ccc(/C=c2\[nH]c(=O)/c(=C/c3ccc(F)cc3F)[nH]c2=O)cc1` [Compound 77], the Inhibition of PAI-1 in the first S2251 chromogenic substrate assay by setting is: (Concentration 6.25 μm) 1%; (Concentration 12.5 μm) 61%; (Concentration 25 μm) 80%; (Concentration 50 μm) 66%; (Concentration 100 μm) 33%.

In turn, `CC(=O)Nc1ccc(/C=c2\[nH]c(=O)/c(=C/c3ccccc3C(F)(F)F)[nH]c2=O)cc1` [Compound 78, (3Z,6Z)-6-(4-Acetamidobenzylidene)-3-(2-trifluoromethylbenzylidene)-2,5-piperazinedione] had an Inhibition of PAI-1 in the first S2251 chromogenic substrate assay (Concentration 6.25 μm) of 2%; an Inhibition of PAI-1 in the first S2251 chromogenic substrate assay (Concentration 12.5 μm) of 4%; an Inhibition of PAI-1 in the first S2251 chromogenic substrate assay (Concentration 25 μm) of 36%; an Inhibition of PAI-1 in the first S2251 chromogenic substrate assay (Concentration 50 μm) of 57%; an Inhibition of PAI-1 in the first S2251 chromogenic substrate assay (Concentration 100 μm) of 30%.

As for `CC(=O)Nc1ccc(/C=c2\[nH]c(=O)/c(=C/c3ccccc3Br)[nH]c2=O)cc1` [Compound 79, (3Z,6Z)-6-(4-Acetamidobenzylidene)-3-(2-bromobenzylidene)-2,5-piperazinedione], the Inhibition of PAI-1 in the first S2251 chromogenic substrate assay is, setting by setting: (Concentration 6.25 μm) 1%; (Concentration 12.5 μm) 2%; (Concentration 25 μm) 27%; (Concentration 50 μm) 55%; (Concentration 100 μm) 42%.

Take `COc1ccc(/C=c2\[nH]c(=O)/c(=C/c3ccc(C(N)=O)cc3)[nH]c2=O)cc1` [Compound 80, 4-[(3Z,6Z)-6-(4-Methoxybenzylidene)-2,5-dioxopiperazin-3-ylidene]methylbenzamide]: the Inhibition of PAI-1 in the first S2251 chromogenic substrate assay (Concentration 12.5 μm) is 0%, the Inhibition of PAI-1 in the first S2251 chromogenic substrate assay (Concentration 25 μm) worked out at 1%, the Inhibition of PAI-1 in the first S2251 chromogenic substrate assay (Concentration 50 μm) came out at 9% and the Inhibition of PAI-1 in the first S2251 chromogenic substrate assay (Concentration 100 μm) came to 53%.

Take `COc1ccc(/C=c2\[nH]c(=O)/c(=C/c3ccc(OC(=O)C(C)(C)C)cc3)[nH]c2=O)cc1` [Compound 81, (3Z,6Z)-3-(4-Methoxybenzylidene)-6-(4-trimethylacetoxybenzylidene)-2,5-piperazinedione]: the Inhibition of PAI-1 in the first S2251 chromogenic substrate assay was 0% (Concentration 12.5 μm), 1% (Concentration 25 μm), 1% (Concentration 50 μm) and 64% (Concentration 100 μm).

Take `CC(=O)Nc1ccc(/C=c2\[nH]c(=O)/c(=C/c3ccc(OC(=O)C(C)(C)C)cc3)[nH]c2=O)cc1` [Compound 82, (3Z,6Z)-3-(4-Acetamidobenzylidene)-6-(4-trimethylacetoxybenzylidene)-2,5-piperazinedione]: the Inhibition of PAI-1 in the first S2251 chromogenic substrate assay reads like this: (Concentration 12.5 μm) 1%; (Concentration 25 μm) 1%; (Concentration 50 μm) 3%; (Concentration 100 μm) 80%.

`COC(=O)Nc1ccc(/C=c2\[nH]c(=O)/c(=C/c3ccc(OC)cc3)[nH]c2=O)cc1` [Compound 83, (3Z,6Z)-3-(4-Methoxybenzylidene)-6-(4-methoxycarbonylaminobenzylidene)-2,5-piperazinedione] showed an Inhibition of PAI-1 in the first S2251 chromogenic substrate assay (Concentration 12.5 μm) of 1%, an Inhibition of PAI-1 in the first S2251 chromogenic substrate assay (Concentration 25 μm) of 1%, an Inhibition of PAI-1 in the first S2251 chromogenic substrate assay (Concentration 50 μm) of 1% and an Inhibition of PAI-1 in the first S2251 chromogenic substrate assay (Concentration 100 μm) of 56%.

`COc1ccc(/C=c2\[nH]c(=O)/c(=C/c3ccc(O)cc3Cl)[nH]c2=O)cc1` [Compound 84, (3Z,6Z)-3-(2-Chloro-4-hydroxybenzylidene)-6-(4-methoxybenzylidene)-2,5-piperazinedione]: the Inhibition of PAI-1 in the first S2251 chromogenic substrate assay runs as follows: (Concentration 6.25 μm) 1%; (Concentration 12.5 μm) 2%; (Concentration 25 μm) 10%; (Concentration 50 μm) 38%; (Concentration 100 μm) 52%.

In the case of `O=c1[nH]/c(=C\c2ccc(O)cc2Cl)c(=O)[nH]/c1=C\c1ccccc1` [Compound 85, (3Z,6Z)-6-Benzylidene-3-(2-chloro-4-hydroxybenzylidene)-2,5-piperazinedione], the Inhibition of PAI-1 in the first S2251 chromogenic substrate assay was 13% (Concentration 6.25 μm); 27% (Concentration 12.5 μm); 43% (Concentration 25 μm); 49% (Concentration 50 μm); 35% (Concentration 100 μm).

In the case of `CC(=O)Nc1ccc(/C=c2\[nH]c(=O)/c(=C/c3ccc(N(C)C)cc3)[nH]c2=O)cc1` [Compound 86, (3Z,6Z)-3-(4-Acetamidobenzylidene)-6-(4-dimethylaminobenzylidene)-2,5-piperazinedione], the Inhibition of PAI-1 in the first S2251 chromogenic substrate assay stood at 31% (Concentration 6.25 μm); 41% (Concentration 12.5 μm); 48% (Concentration 25 μm); 37% (Concentration 50 μm); 23% (Concentration 100 μm).

Regarding `COc1ccc(/C=c2\[nH]c(=O)/c(=C/c3ccc(NC(=O)COC(C)=O)cc3)[nH]c2=O)cc1` [Compound 87, (3Z,6Z)-3-(4-Acetoxyacetylaminobenzylidene)-6-(4-methoxybenzylidene)-2,5-piperazinedione], the Inhibition of PAI-1 in the first S2251 chromogenic substrate assay (Concentration 6.25 μm) is 0%; the Inhibition of PAI-1 in the first S2251 chromogenic substrate assay (Concentration 12.5 μm) stood at 28%; the Inhibition of PAI-1 in the first S2251 chromogenic substrate assay (Concentration 25 μm) came out at 70%; the Inhibition of PAI-1 in the first S2251 chromogenic substrate assay (Concentration 50 μm) stood at 81%; the Inhibition of PAI-1 in the first S2251 chromogenic substrate assay (Concentration 100 μm) was 78%.

On to `COc1ccc(/C=c2\[nH]c(=O)/c(=C/c3ccc(NC(=O)CO)cc3)[nH]c2=O)cc1` [Compound 88, (3Z,6Z)-3-(4-Hydroxyacetylaminobenzylidene)-6-(4-methoxybenzylidene)-2,5-piperazinedione], for which the Inhibition of PAI-1 in the first S2251 chromogenic substrate assay is, setting by setting: (Concentration 6.25 μm) 0%; (Concentration 12.5 μm) 40%; (Concentration 25 μm) 60%; (Concentration 50 μm) 49%; (Concentration 100 μm) 41%.

As to `CN(C)c1ccc(/C=c2\[nH]c(=O)/c(=C/c3ccccc3)[nH]c2=O)c2ccccc12` [Compound 89], the Inhibition of PAI-1 in the first S2251 chromogenic substrate assay reads like this: (Concentration 6.25 μm) 7%; (Concentration 12.5 μm) 40%; (Concentration 25 μm) 66%; (Concentration 50 μm) 55%; (Concentration 100 μm) 63%.

Turning to `COc1ccc(/C=c2\[nH]c(=O)/c(=C/c3ccccc3)[nH]c2=O)cc1OC` [Compound 90, (3Z,6Z)-6-Benzylidene-3-(3,4-dimethoxybenzylidene)-2,5-piperazinedione], the Inhibition of PAI-1 in the first S2251 chromogenic substrate assay was determined as 0% (Concentration 6.25 μm); 6% (Concentration 12.5 μm); 33% (Concentration 25 μm); 85% (Concentration 50 μm); 75% (Concentration 100 μm).

For the compound `COc1ccc(/C=c2\[nH]c(=O)/c(=C/c3ccc(OC)c(OC)c3)[nH]c2=O)cc1` [Compound 91, (3Z,6Z)-3-(3,4-Dimethoxybenzylidene)-6-(4-methoxybenzylidene)-2,5-piperazinedione], the Inhibition of PAI-1 in the first S2251 chromogenic substrate assay reads like this: (Concentration 6.25 μm) 0%; (Concentration 12.5 μm) 0%; (Concentration 25 μm) 3%; (Concentration 50 μm) 72%; (Concentration 100 μm) 50%.

In the case of `COc1ccc(/C=c2\[nH]c(=O)/c(=C/c3ccc(NC(C)=O)cc3)[nH]c2=O)cc1OC` [Compound 92], the Inhibition of PAI-1 in the first S2251 chromogenic substrate assay reads like this: (Concentration 6.25 μm) 17%; (Concentration 12.5 μm) 12%; (Concentration 25 μm) 38%; (Concentration 50 μm) 44%; (Concentration 100 μm) 86%.

`COC(=O)COc1ccc(/C=c2\[nH]c(=O)/c(=C/c3ccccc3)[nH]c2=O)cc1` [Compound 93, 4-[(3Z,6Z)-6-Benzylidene-2,5-dioxopiperazin-3-ylidene]methylphenoxyacetic acid, methyl ester]: the Inhibition of PAI-1 in the first S2251 chromogenic substrate assay reads like this: (Concentration 6.25 μm) 2%; (Concentration 12.5 μm) 7%; (Concentration 25 μm) 39%; (Concentration 50 μm) 68%; (Concentration 100 μm) 91%.

These data come from patent US5700804A, “Pharmaceutical compounds” (Xenova Limited, priority 1992, dated 1997).
